Results taken from patent US7897567B2, “Methods of protecting against radiation damage using alpha thymosin” (SciClone Pharmaceuticals, Inc., priority 2002, dated 2011).
Ends that are not written are not given here.

Assays:
[1] = subcutaneously injected; cited from earlier work
[2] = tested on: clonogenic cells of the small intestine (crypts); assay: Small intestine crypt survival after 13Gy X-irradiation in BDF1 mice; type: in vivo
Description: Radiation exposure may damage or kill cells. Therefore, stem and clonogenic cells of the small intestine were exposed to radiation, treated and monitored to observe the effectiveness of the treatment. There are thought to be between four and sixteen actual stem cells in each crypt of the small intestine. There are also a further reserve of clonogneic cells which are capable of regenerating the crypt when all the actual stem cells have been killed. The survival of these clonogenic cells is therefore key to the survival of the crypt and the restoration of an intact epithelial lining following cytotoxic injury (only one clonogenic cell need survive to ensure the survival of the crypt, and therefore maintenance of an intact epithelium). Growth factors and related molecules can be used to manipulate the sensitivity of these cells to cytotoxic agents, and thereby reduce the severity of gastrointestinal and oral mucositis. Factors given prior to a cytotoxic insult may increase clonogenic cell number (thereby increasing the probability of clonogen survival) or act to arrest the cell cycle in such cells (thereby making them more resistant to damage or death). […] A combination of both protocols could give maximum protection to the epithelium.
36 adult male BDF1 mice (aged 10-12 weeks) were used. The animals were divided into 6 groups and were treated as follows: (1) Control mice, (2) Irradiated, untreated mice, (3) Mice receiving 3 mg/kg thymosin ip 3 hrs prior to irradiation, (4) Mice receiving vehicle ip 3 hrs prior to irradiation, (5) Mice receiving 3 mg/kg thymosin ip 3 times daily for 3 days prior to irradiation, (6) Mice receiving vehicle ip 3 times daily for 3 days prior to irradiation.
The injections were given at 9:00 (3 times treatment) or 12:00 (1 time treatment). At 3:00 on day 3, intestinal damage was induced using a single dose of 13Gy (Gray) X-irradiation.
4 days after irradiation the animals were culled. The small intestine was removed and fixed in Carnoy's fixative prior to processing for histological analysis. 3 um sections were cut and stained with haematoxylin and eosin. Surviving crypts with one or more clonogenic cells are clearly visible in the irradiated sections. […]
For each animal ten intestinal circumferences were analyzed (60 per group). […] The number of surviving crypts per circumference were scored and the average per group determined. Only crypts containing 10 or more strongly H&E stained cells (excluding Paneth cells) and only intact circumference not containing Peyers patches were scored (Peyers patches influence both the number of crypts in a normal circumference and the ability of a crypt to survive insult).
The average crypt width (measured at its widest point) was also measured in order to correct for scoring errors due to crypt size difference. […]

Thymosin alpha 1 (SDAAVDTSSEITTKDLKEKKEVVEEAEN; not fully specified (N-terminus); UniProt P06454 2-29, looked up) [28-amino acid thymic peptide with immunomodulatory properties, homologous to a natural product isolated from thymosin fraction 5 of calf thymus]
plasma half-life [1]: about two | survival of treatment and adverse effects ([2]; 3 mg/kg ip, single or triple dose, BDF1 mice, 13Gy X-irradiation): no obvious adverse effects | increase in surviving crypts ([2]; triple dose thymosin vs triple dose vehicle control): 77% | protection factor ([2]; triple dose thymosin vs triple dose vehicle control (5.3 vs 3)): 1.77 | corrected crypt survival (corrected number of crypts/circumference) ([2]; triple dose: 3 mg/kg ip 3 times daily for 3 days prior to 13Gy X-irradiation, BDF1 mice, 4 days after irradiation): 5.3 crypts/circumference
